In patent US20240417407A1, “FUROINDAZOLE DERIVATIVES AS GPR84 ANTAGONISTS” (Bayer Aktiengesellschaft, priority 2021, published 2024):
pIC50: −log10 of the molar value.

target: T1, human GPR84 receptor (Homo sapiens, UniProt Q9NQS5); experiment: cAMP HTRF assay for identification of cellular GPR84 antagonists; format: cell-based; details: CHO-K1 cells stably expressing human GPR84; Forskolin plus agonist 6-OAU; cAMP HTRF readout; average or median values
T1 construct: frozen aliquots prepared by acCELLerate; host or cells: CHO-K1
Excerpt: cAMP HTRF® Assay for Identification of Cellular GPR84 Antagonists
By using a Homogenous Time-Resolved Fluorescence (HTRF®) based assay (#62AM5PEJ, Cisbio, Condolet, France) the inhibition of the Gi-coupled GPR84 receptor can be detected. CHO-K1 cells stably expressing human GPR84 receptor (purchased from DiscoveRx, now Eurofins) were used and treated with Forskolin (F6886, Sigma, Germany) to stimulate membrane adenylyl cyclases and thereby unspecific cAMP formation. Activation of the Gi-coupled GPR84 by a natural or small molecule agonist (e.g. 6-n-octyl aminouracile, inhouse) results in inhibition of cellular cAMP formation which can be released again by antagonists to this receptor. Detection and quantification of cellular cAMP levels in this HTRF assay is achieved by interaction between a fluorescent cAMP tracer (cAMP-d2) and an Eu-cryptate labelled anti-cAMP antibody. Following excitation at 337 nm this pairing allows for the generation of a fluorescence resonance energy transfer (FRET) between the partners and results in FRET induced emissions at 665 nm and 620 nm, the latter representing background signal by Eu-cryptate labelled anti-cAMP antibody. Maximal signal is obtained in the absence of any cellular cAMP (no competition for the binding of the tracer to the antibody). Given the combination of the Gi coupling properties of GPR84 and the competitive nature of the detection system agonist treatment should result in an increase in the HTRF signal due to lowered cAMP levels. Any signal decrease in the presence of Forskolin, agonist and compound is indicative of antagonist mediated abrogation of GPR84 signalling.
For the assay, frozen aliquots of CHO-K1 cells expressing hGPR84 (prepared by acCELLerate, Hamburg, Germany) were thawed and a cell suspension (1.67E+06 cells/mL) in assay media (Ham's F12 Nutrient Mix, Thermo Fisher Scientific, Waltham, USA; 5% fetal calf serum, Biomol, Hamburg, Germany) containing cAMP-d2 (dilution 1:20, supplied with the kit #62AM5PEJ, Cisbio, Condolet, France) was prepared. After recovery of cells for 20 minutes at 37° C., 3 μL/well cell suspension including cAMP-d2 were added to a pre-dispensed assay plate (Greiner Bio-One, Kremsmuenster, Austria) containing 50 nl/well test compound in 100% DMSO or 100% DMSO as control. This was followed by a 30 minutes incubation step at room temperature. […] The reaction was stopped by addition of 3 μL/well lysis buffer containing cAMP Eu-Cryptate antibody (dilution 1:20) (both supplied with the kit #62AM5PEJ, Cisbio, Condolet, France). To enable complete lysis, plates were incubated for 60 minutes at room temperature before measurement in an HTRF reader, e.g. a PHERAstar (BMG Labtech, Ortenberg, Germany).
From the fluorescence emissions at 665 nm (FRET) and at 620 nm (background signal of Eu-cryptate) the ratio (emission at 665 nm divided by emission at 620 nm×10000) was calculated and the data were normalized (reaction without test compound, only 100% DMSO=0% inhibition; all other assay components except agonist=100% inhibition). For dose response testing on the same microtiter plate, compounds were tested at 11 different concentrations in the range of 20 μM to 0.07 nM (20 μM, 5.7 μM, 1.6 μM, 0.47 μM, 0.13 μM, 38 nM, 11 nM, 3.1 nM, 0.89 nM, 0.25 and 0.07 nM; dilution series prepared before the assay at the level of the 100-fold conc. stock solutions by serial 1:3.5 dilutions in 100% DMSO) in duplicate values for each concentration. IC50 values were calculated by 4-parameter fitting using a commercial software package (Genedata Screener, Basel, Switzerland).
Examples were tested in selected biological assays one or more times. […]

T1 sequence (Q9NQS5 whole entry): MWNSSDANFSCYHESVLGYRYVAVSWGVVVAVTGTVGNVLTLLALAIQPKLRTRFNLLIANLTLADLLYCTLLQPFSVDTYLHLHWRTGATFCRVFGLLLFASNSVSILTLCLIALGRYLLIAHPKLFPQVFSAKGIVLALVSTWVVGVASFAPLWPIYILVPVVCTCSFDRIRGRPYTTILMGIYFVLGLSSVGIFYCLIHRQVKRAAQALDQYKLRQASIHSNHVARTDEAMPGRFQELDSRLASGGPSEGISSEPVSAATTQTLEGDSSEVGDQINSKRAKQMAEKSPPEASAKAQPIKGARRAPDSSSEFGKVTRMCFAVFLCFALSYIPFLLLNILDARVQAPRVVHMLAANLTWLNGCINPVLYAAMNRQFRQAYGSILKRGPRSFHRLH

Row | pIC50 | SMILES
1 | 6.40 | COc1cccc(CNC(=O)c2oc3ccc4cn(C[C@H]5COCCO5)nc4c3c2C(F)(F)F)n1 [Example 24]
2 | 7.80 | O=C(NC[C@@H]1COCCO1)c1oc2ccc3cn(C[C@H]4COCCO4)nc3c2c1C(F)(F)F [Example 1, N-{[(2R)-1,4-dioxan-2-yl]methyl}-2-{[(2S)-1,4-dioxan-2-yl]methyl}-8-(trifluoromethyl)-2H-furo[2,3-g]indazole-7-carboxamide]
3 | 5.45 | O=C(NCCc1cccnc1)c1oc2ccc3cn(C[C@H]4COCCO4)nc3c2c1C(F)(F)F [Example 28, 2-{[(2S)-1,4-dioxan-2-yl]methyl}-N-[2-(pyridin-3-yl)ethyl]-8-(trifluoromethyl)-2H-furo[2,3-g]indazole-7-carboxamide]
4 | 7.00 | Cc1cc2oc(C(=O)NCc3ncco3)c(C(F)(F)F)c2c2nn(Cc3ccccn3)cc12 [Example 33]
5 | 8.05 | Cc1ccc(Cn2cc3ccc4oc(C(=O)NC[C@@H]5CCCO5)c(C(F)(F)F)c4c3n2)cn1 [Example 4]
